Assay results taken from a melting point compilation (Tetko et al.; mined from patent text by program, amines drawn as free bases though some values may be those of a salt).

Row | Structure (SMILES) | melting point
1 | Fc1ccccc1-c1nncc2c(-c3ccccc3)c(OCc3ccccn3)nn12 | 182 to 183 °C
2 | CC(C)(C)c1ccc(C(=O)c2ccc(C(C)(C)C)cc2)cc1 | 132 to 136 °C
3 | CC(O)CCc1cc(C(C)(C)C)c(O)c(C(C)(C)C)c1 (stereo not drawn) | 62 to 67 °C
4 | CSCC(=O)C(Cc1ccccc1)NC(=O)C(CC(C)C)NC(=O)Cc1cccc2ccccc12 (stereo not drawn) | 126 to 129 °C
5 | O=C1N(C(c2ccccc2)c2ccccc2)c2ccccc2C12COc1cc3c(cc12)CCCO3 (stereo not drawn) | 208 to 211 °C
6 | Nc1ncc(-c2noc(-c3cnn4c(C(F)(F)F)cc(-c5ccc(C(F)(F)F)c(Cl)c5)nc34)n2)cn1 | 279 °C
7 | CN(Cc1ccccc1)CC1Nc2ccccc2Cn2cccc21 (stereo not drawn) | 147 to 149 °C
8 | ClC(Cl)(Cl)c1nncs1 | 58 °C
9 | CN1CCN(C(=N)Nc2ccccc2-c2cccc(F)c2)CC1 | 117 to 118 °C
10 | Cc1cccc(C)c1N1C(=O)CN(C(C)C)C1=S | 135 to 137 °C
11 | CCOC(=O)c1cc(O)cc(O)c1 | 128 to 130 °C
12 | Nc1sc2c(c1C(=O)c1cccc3ccccc13)CCC2 | 255 to 257 °C
13 | CCS(=O)(=O)c1ccc(C(CC2CCCC2)C(=O)Nc2ccccn2)cc1 (stereo not drawn) | 144 to 145 °C
14 | CCOC(=O)c1cc(Br)cc(C(=O)OCC)n1 | 95 to 96 °C
15 | CCCCCCCCOc1ccc(-c2ccc(C(C)OC(=O)CCCCC)cc2)cc1 (single isomer, unassigned; (-)) | 60.8 °C
16 | COc1ccc(Cl)c(Oc2c(CCl)nc(N3CCOCC3)nc2NS(=O)(=O)c2ccc(C(C)(C)C)cc2)c1 | 155 to 156 °C
17 | CCNc1cn(-c2cccnc2)nc1Cl | 89 to 90 °C
18 | CC(C)(C)OC(=O)CCC1CC(O)C(=O)N1 (stereo not drawn) | 94 to 95 °C
19 | C(=CCN(Cc1ccccc1)Cc1ccccc1)CN(Cc1ccccc1)Cc1ccccc1 | 114 to 115 °C
20 | Cc1cc(Cl)c(OCCO[Si](C)(C)C(C)(C)C)cc1Nc1nnc2n1[C@H](c1ccc(F)cc1)COC2 | 141 to 142 °C
21 | Nc1cccc2c(OCc3ccccc3)ccnc12 | 115 °C
22 | O=C1NCC1NC(=O)C(C(=O)OCc1ccccc1)c1ccccc1 (stereo not drawn) | 164 to 166 °C
23 | CC(=O)COc1cccnc1C(N)=O | 135 to 140 °C
24 | O=[N+]([O-])c1nccn1CC(O)CN1CC1 (stereo not drawn) | 118 to 120 °C
25 | CCCn1c(=Nc2ccccc2)sc2ncccc2c1=O | 94 to 95 °C
26 | O=C1NCCCN1Cc1ccc2ccccc2c1 | 151 to 155 °C
27 | O=C(Nc1nc(-c2ccccc2)cs1)Nc1nc(-c2ccccc2)cs1 | 285 to 287 °C
28 | Nc1cnc(N2CCN(CCCC(=O)c3ccc(F)cc3)CC2)cc1N | 166 to 169 °C

Row | Structure (SMILES) | melting point
29 | CC(C)CSc1nc(N)nc2c1ncn2C1C=CC(CO)C1 (stereo not drawn) | 127 to 129 °C
30 | CC(=O)C=CCCc1ccc(OCc2ccccc2)cc1 | 70 to 72 °C
31 | COC(=O)C=Cc1cc2cc(NC(=O)c3cc4ccccc4o3)ccc2[nH]1 | 259 to 260 °C
32 | COc1ccnc(CCc2nc3cc(-c4ccc(C#N)cc4)cnc3[nH]2)c1 | 241 to 242 °C
33 | O=C(O)Cc1coc2cc(OCc3cccc(OCc4ccc(C(F)(F)F)cc4)c3)ccc12 | 155 to 157 °C
34 | C=CCn1c(C)c(C)c2cnnc(OCc3ccccc3)c21 | 115 to 116 °C
35 | CNc1cc(NS(=O)(=O)c2cccc(C(F)(F)F)c2)nc(NC)n1 | 234 to 235 °C
36 | N#Cc1cc(C=O)cc(O)c1O | 210 to 215 °C
37 | COCOc1cc(OC)ccc1Br | 40 to 42 °C
38 | Clc1nccc(N[C@H]2CC[C@@H](c3ccccc3)CC2)c1Br | 105 °C
39 | CCCCOc1ccc(SCCSc2ccc(OCCCC)cc2)cc1 | 102 to 103 °C
40 | Cc1n[nH]c2ccc(C3C(C#N)=C(C(F)F)NC(C(F)F)=C3C#N)cc12 | 289 °C
41 | CCOC(=NC(=O)Nc1ccc(OC(F)(F)F)cc1)c1ccccc1F | 93 to 95 °C
42 | CC#CC1(O)CCC2C3CCC4=CC(=O)CCC4C3CCC21CC (stereo not drawn) | 124 to 125 °C
43 | N#CCc1nc(-c2ccc(Cl)cc2)sc1-c1ccccc1 | 118 to 120 °C
44 | COc1ccc(CCNCC(O)c2ccccc2C)cc1OC (stereo not drawn) | 91 to 94 °C
45 | Clc1ccc2onc(CBr)c2c1 | 83 to 85 °C
46 | O=C1N(Cc2ccc(-c3ccccn3)cc2)c2ccccc2C12COc1cc3c(cc12)CCO3 (stereo not drawn) | 217 to 219 °C
47 | CCCc1nc(C(C)O)c(C(=O)O)n1Cc1ccc(-c2ccccc2-c2nnn[nH]2)cc1 (stereo not drawn) | 198 to 201 °C
48 | CCOC(=O)CC12CC1CCCC2=O (stereo not drawn) | 154 to 156 °C
49 | CNC(=O)c1cc2c(Oc3ccc(-n4cncn4)cc3)cncc2s1 | 214 to 215 °C
50 | FC(F)(F)c1cccc2c(-c3ccccc3)c(Oc3ccccc3)cnc12 | 153 to 155 °C
51 | CCO[C@H]1Cc2ccccc2[C@H]1Nc1nc(CC)c(-c2ccc(OC)cc2OC)nc1CC | 120 to 121 °C
52 | CCCCCCC(c1ccc2[nH]c(-c3ccc(F)cc3)nc2c1)n1ccnc1 (stereo not drawn) | 122 °C
53 | COC(=O)CCCC=C1SC(=S)N(N=c2sc3ccccc3s2)C1=O | 210 °C
54 | Nc1ccc(OCC2COCCO2)cc1 (stereo not drawn) | 86 to 87 °C
55 | O=C1Nc2ccc(Br)cc2C2(CCCCC2)O1 | 208 to 210 °C

Continued, values first:

Row | melting point | Structure (SMILES)
56 | 158 °C | CC(=O)OC1CSC(Oc2ccc3sc(C)nc3c2)C(OC(C)=O)C1OC(C)=O (stereo not drawn)
57 | 285 to 300 °C | Cc1cccc(NC(=O)NC2CC(c3ccccc3F)c3ccccc3N(CC(=O)NC(C)(C)C)C2=O)c1 (stereo not drawn)
58 | 163 to 165 °C | COc1ccc2c(c1)CC1=C2NN(C(=O)OC(C)(C)C)C1c1cccs1 (stereo not drawn)
59 | 179 to 180 °C | Cc1oc2ccccc2c(=O)c1O
60 | 102 to 103 °C | O=C(CC1(O)C(=O)N(Cc2ccc(Cl)cc2)c2ccccc21)C1CC1 (stereo not drawn)
61 | 188 to 190 °C | CC(C)(C)c1cc(C(=O)c2ccc(O)cc2)cc(C(C)(C)C)c1O
62 | 213 to 214 °C | O=C(Nc1cc(F)ccc1F)c1cc(-c2ccc(F)cc2F)ccc1O
63 | 138 to 140 °C | CC(=O)NC[C@H]1CN(c2ccc(N3CCC4(CC3)NCCO4)c(F)c2)C(=O)O1
64 | 211 to 212 °C | Cc1nccn1-c1nc(-c2ccc(Cl)cc2)c(CCCC(=O)O)o1
65 | 159 to 160 °C | O=C(NCCO)c1cccc(-c2ccc3ccn(-c4ccc(Cl)cc4Cl)c3n2)c1
66 | 108 to 110 °C | CCOC(=O)c1cc(C(=O)c2cccc(S(=O)(=O)F)c2)sc1NC(=O)OCC(Cl)(Cl)Cl
67 | 162 to 165 °C | COc1nc(C(=O)NS(=O)(=O)c2c(Cl)cccc2Cl)cs1
68 | 127 to 130 °C | CC(=O)c1cnn2c(-c3cccc(C(F)(F)F)c3)ccnc12
69 | 182 °C | CCn1c(C=O)c(-c2ccc(F)cc2)c(C(C)C)c1C(=O)O
70 | 142 to 144 °C | COC(=O)c1cc2cc(OC)c(OC)cc2c(C)c1C(=O)OC
71 | 144 to 146 °C | CN1CC=C(C2=Cc3ccccc3Oc3ccc(Br)cc32)CC1
72 | 176 to 178 °C | COc1nn(-c2cccc(Nc3nccs3)c2)c(=O)n(Cc2ccc(Cl)cc2)c1=O
73 | 141 to 142 °C | CC(C)c1oc(C=Cc2ccccc2)nc1C(=O)O
74 | 199 to 200 °C | CCOC(=O)c1cnc2n(c1=O)C(C)CCC2=NN (stereo not drawn)
75 | 126 to 130 °C | CC(C)(C)NC(=O)[C@@H]1C[C@H](Cl)CN1C(=O)[C@@H](O)[C@@H](N)Cc1ccccc1
76 | 212 °C | COC(=O)c1ccc(C(=O)Nc2cc3c4c(c2)CCCC4(C)CCC3)s1
77 | 156 to 157 °C | CCCN(CCC)C(=O)Cn1c(=O)n(C)c2cnc(-c3ccccc3)nc21
78 | 96 °C | COc1cc(C(C)=O)c(OC)cc1Cl
79 | 207 to 209 °C | C=C(Cl)COc1ccc(Br)cc1CN(CC)c1ccc(C(=O)O)cn1

Row | melting point | Structure (SMILES)
80 | 101 to 102 °C | CCCCC(=O)Nc1cccc(C(=O)OC)c1
81 | 99 to 100 °C | CCC1CC(C)C(=O)C=C1c1ccc(OCC(=O)O)c(Cl)c1Cl (stereo not drawn)
82 | 168 °C | Cc1cnc2c(c1)CCCC2NC(=S)NC(=O)c1ccccc1 (stereo not drawn)
83 | 99 to 101 °C | COc1nc(C)cnc1N(C(=O)OCC(C)C)S(=O)(=O)c1cccnc1Cl
84 | > 250 °C | Cc1cc([N+](=O)[O-])cc2c1S(=O)C=N2 (stereo not drawn)
85 | 207 to 209 °C | CN1CCC(C2(O)c3ccc(F)cc3Sc3ccc(F)cc32)CC1 (stereo not drawn)
86 | 164 to 166 °C | COc1ccc(-c2cnc3cc4cnn(CCOC(C)=O)c4cc3n2)cc1F
87 | 80 to 82 °C | CCCC(=O)c1c(O)oc(=O)c(C(=O)CCC)c1O
88 | 222 to 223 °C | COc1ccc(Cl)c(S(=O)(=O)NC(=O)c2nc3c(Cl)cc(C(F)(F)F)cn3c2C)c1
89 | 183 °C | CC(=O)C(C)Oc1cc(-n2c(=O)cc(C(F)(F)F)[nH]c2=O)c(F)cc1Br (stereo not drawn)
90 | > 250 °C | Cn1ncc(C(=O)O)c1C(=O)Nc1ccn2nc(-c3cccnc3)nc2c1
91 | 91 °C | CCCCCCCC(=O)N(C)Cc1cccc(-c2ccc(C=CC(=O)O)c(F)c2)c1
92 | 100 to 102 °C | CC1(C)OC[C@H](CON2C(=O)c3ccccc3C2=O)O1
93 | 88.8 to 91.9 °C | C[C@]1(CN2CCC(OCCCc3ccc(Cl)cc3)CC2)Cn2cc([N+](=O)[O-])nc2O1
94 | 128 °C | CC1ON(C)C(=O)C(C(=O)c2ccc(Cl)cc2[N+](=O)[O-])C1=O (stereo not drawn)
95 | 188 °C | CC(=O)OC1CSC(Oc2ccc(I)nc2Cl)C(OC(C)=O)C1OC(C)=O (stereo not drawn)
96 | 175 to 177 °C | O=C(NCCCn1ccnc1)c1ccccc1NS(=O)(=O)c1ccc(Cl)cc1
97 | 154 to 155 °C | COc1ccc(C(=O)Cc2c(Cl)cccc2Cl)c2c1OCCO2
98 | 102 °C | CC(=O)CCC1CCC2C(C=CC3=CCCc4c3n2c2ccncc42)C1 (stereo not drawn)
99 | 135 °C | CN1C(=O)CC[C@]2(C)c3ccc(-c4cccnc4)cc3CC[C@@H]12
100 | 209 to 210 °C | CC1(C)CCC(C)(C)c2c1ccc(C=Nc1ccc(C(=O)O)c(O)c1)c2N
101 | 266 to 268 °C | CCOC(=O)c1cn(OC)c2nc3cc(F)c(F)cc3cc2c1=O
102 | 61.4 to 63.1 °C | CCOC(=O)c1cnc(Cl)cc1NC
103 | 257 °C | CCOC(=O)c1c(C)[nH]c2ccc(C(=O)c3c(C)c(OC)c4ccccn34)cc2c1=O
